Assay results: ChEMBL document CHEMBL6182876, “Design, synthesis and preliminary structure-activity relationship of 2-iminothiazolidine-4-one derivatives against Schistosoma japonicum in vitro and in vivo” (Eur J Med Chem, 2025)

Experiments:
Schistosoma japonicum [1] = test: Anti-schistosomal activity against adult Schistosoma japonicum assessed as worm mortality at 100 uM measured at 12 hrs relative to control; format: functional
Schistosoma japonicum [2] = test: Anti-schistosomal activity against adult Schistosoma japonicum assessed as worm mortality at 100 uM measured at 4 hrs relative to control; format: functional
Schistosoma japonicum [3] = test: Anti-schistosomal activity against adult Schistosoma japonicum assessed as worm mortality at 100 uM measured at 24 hrs relative to control; format: functional
Schistosoma japonicum [4] = test: Anti-schistosomal activity against adult Schistosoma japonicum assessed as worm mortality at 100 uM measured at 48 hrs relative to control; format: functional
Schistosoma japonicum [5] = test: Anti-schistosomal activity against adult Schistosoma japonicum assessed as worm mortality at 100 uM measured at 72 hrs relative to control; format: functional
Schistosoma japonicum [6] = test: Anti-schistosomal activity against adult Schistosoma japonicum assessed as worm mortality at 100 uM measured at 8 hrs relative to control; format: functional
Schistosoma japonicum [7] = test: Anti-schistosomal activity against adult Schistosoma japonicum measured at 72 hrs; format: functional, organism-based

Compound	mortality at 100 µM (Schistosoma japonicum [1]) [%]	mortality at 100 µM (Schistosoma japonicum [2]) [%]	mortality at 100 µM (Schistosoma japonicum [3]) [%]	mortality at 100 µM (Schistosoma japonicum [4]) [%]	mortality at 100 µM (Schistosoma japonicum [5]) [%]	mortality at 100 µM (Schistosoma japonicum [6]) [%]	IC50 (Schistosoma japonicum [7]) [µM]
CN1CCN(CCCN2C(=O)/C(=C/c3cccc(Cl)c3)S/C2=N\c2ccc(C(F)(F)F)cc2)CC1	70	20	100	100	100	40	
CCOC(=O)/C=C1\S/C(=N\c2ccccc2C(F)(F)F)N(CCCN2CCN(C)CC2)C1=O	100	0	100	100	100	40	33.2
CN1CCN(CCCN2C(=O)CS/C2=N\c2ccc(C(F)(F)F)cc2)CC1	0	0	0	0	10	0	
COc1ccccc1/C=C1\S/C(=N\c2ccc(C(F)(F)F)cc2)N(CCCN2CCN(C)CC2)C1=O	0	0	0	10	70	0	
Cc1cc(/C=C2\S/C(=N\c3ccc(C(F)(F)F)cc3)N(CCCN3CCN(C)CC3)C2=O)ccc1F	0	0	10	20	30	0	
CCOC(=O)/C=C1\S/C(=N\c2ccc(OC)cc2)N(CCCN2CCN(C)CC2)C1=O	0	0	0	10	30	0	95.7
CCOC(=O)/C=C1\S/C(=N\c2ccccc2)N(CCCN2CCOCC2)C1=O	0	0	0	0	100	0	91.3
CCOC(=O)/C=C1\S/C(=N\c2cc(C(F)(F)F)cc(C(F)(F)F)c2)N(CCCN2CCN(C)CC2)C1=O	100	0	100	100	100	40	36.4
CCOC(=O)/C=C1\S/C(=N\c2ccccc2)N(CCN2CCC(Cc3ccccc3)CC2)C1=O	0	0	0	20	70	0	91.3
CCOC(=O)/C=C1\S/C(=N\c2ccccc2)N(CCCN(C)C)C1=O	0	0	10	40	100	0	97.7
CN1CCN(CCCN2C(=O)/C(=C/c3cccc(F)c3)S/C2=N\c2ccc(C(F)(F)F)cc2)CC1	0	0	0	30	30	0	
CN1CCN(CCCN2C(=O)/C(=C/c3ccccc3F)S/C2=N\c2ccc(C(F)(F)F)cc2)CC1	0	0	0	0	20	0	
CCOC(=O)/C=C1\S/C(=N\C)N(CCCN2CCN(C)CC2)C1=O	0	0	0	0	0	0	> 100
CCOC(=O)/C=C1\S/C(=N\c2ccc([N+](=O)[O-])cc2)N(CCCN2CCN(C)CC2)C1=O	0	0	10	100	100	0	72
CCOC(=O)/C=C1\S/C(=N\c2cc(F)ccc2F)N(CCCN2CCN(C)CC2)C1=O	0	0	30	100	100	0	31.2
CCOC(=O)/C=C1\S/C(=N\c2ccccc2)N(CCCN2CCCC2)C1=O	0	0	20	30	100	0	77.9
COc1cccc(/C=C2\S/C(=N\c3ccc(C(F)(F)F)cc3)N(CCCN3CCN(C)CC3)C2=O)c1	20	0	70	100	100	0	

Compound	mortality at 100 µM (Schistosoma japonicum [1]) [%]	mortality at 100 µM (Schistosoma japonicum [2]) [%]	mortality at 100 µM (Schistosoma japonicum [3]) [%]	mortality at 100 µM (Schistosoma japonicum [4]) [%]	mortality at 100 µM (Schistosoma japonicum [5]) [%]	mortality at 100 µM (Schistosoma japonicum [6]) [%]	IC50 (Schistosoma japonicum [7]) [µM]
CCOC(=O)/C=C1\S/C(=N\c2ccc(F)cc2)N(CCCN2CCN(C)CC2)C1=O	0	0	30	80	100	0	42.8
Cc1cccc(/C=C2\S/C(=N\c3ccc(C(F)(F)F)cc3)N(CCCN3CCN(C)CC3)C2=O)c1	0	0	20	90	100	0	
Cc1ccccc1/C=C1\S/C(=N\c2ccc(C(F)(F)F)cc2)N(CCCN2CCN(C)CC2)C1=O	0	0	0	10	30	0	
CCOC(=O)/C=C1\S/C(=N\c2ccccc2)N(CCCN2CCN(C)CC2)C1=O	0	0	10	100	100	0	75.6
CN1CCN(CCCN2C(=O)/C(=C/c3ccccc3)S/C2=N\c2ccc(C(F)(F)F)cc2)CC1	0	0	10	20	30	0	
CN1CCN(CCCN2C(=O)/C(=C/c3ccc(Cl)cc3)S/C2=N\c2ccc(C(F)(F)F)cc2)CC1	0	0	100	100	100	0	
CCOC(=O)/C=C1\S/C(=N\c2ccc(CC)cc2)N(CCCN2CCN(C)CC2)C1=O	10	0	60	100	100	0	
CCOC(=O)/C=C1\S/C(=N\c2ccccc2)N(CCN(C)C)C1=O	0	0	0	0	10	0	> 100
CCOC(=O)/C=C1\S/C(=N\c2ccccc2)N(CCN2CCOCC2)C1=O	0	0	0	40	60	0	93.1
CCOC(=O)/C=C1\S/C(=N\c2ccc(Br)cc2)N(CCCN2CCN(C)CC2)C1=O	60	0	100	100	100	30	35.4
CCOC(=O)/C=C1\S/C(=N\c2ccccc2)N(CCN2CCCCC2)C1=O	0	0	0	10	50	0	> 100
CCOC(=O)/C=C1\S/C(=N\c2ccccc2)N(CCN(CC)CC)C1=O	0	0	10	10	30	0	> 100
CN1CCN(CCCN2C(=O)/C(=C/c3ccc([N+](=O)[O-])cc3)S/C2=N\c2ccc(C(F)(F)F)cc2)CC1	0	0	0	30	70	0	
CCOC(=O)/C=C1\S/C(=N\c2ccc(Cl)c(Cl)c2)N(CCCN2CCN(C)CC2)C1=O	100	0	100	100	100	40	39.3
Cc1ccc(/C=C2\S/C(=N\c3ccc(C(F)(F)F)cc3)N(CCCN3CCN(C)CC3)C2=O)cc1	0	0	30	70	100	0	
CN1CCN(CCCN2C(=O)/C(=C/c3ccccc3Cl)S/C2=N\c2ccc(C(F)(F)F)cc2)CC1	0	0	0	0	40	0	
COc1ccc(/C=C2\S/C(=N\c3ccc(C(F)(F)F)cc3)N(CCCN3CCN(C)CC3)C2=O)cc1	0	0	0	20	60	0	
